# Measured values: patent US9750748B2, “Pyridazinones as DAAO enzyme inhibitors” (TAKEDA PHARMACEUTICAL COMPANY LIMITED, priority 2012, dated 2017)
# Target: Human DAAO enzyme (Homo sapiens (Human), UniProt P14920)
# Experiment: In Vitro DAAO Enzyme Assay (Amplex Red detection of H2O2 from D-Serine)
# Format: biochemical
# Conditions: inhibition of DAAO activity in the presence of 10 mM D-Serine; 60 minutes at 25° C.
# Method: In Vitro DAAO Enzyme Assay
# The functional activity of compounds inhibiting the DAAO enzyme was determined by utilizing the co-product of the catalysis of D-Serine, H2O2, which can be quantitatively measured using the ‘Amplex’ (trade mark) Red (Invitrogen) detection. ‘Amplex’ Red reagent is a colorless substrate that reacts with hydrogen peroxide (H2O2) with a 1:1 stoichiometry to produce highly fluorescent resorufin (excitation/emission maxima=570/585 nm).
# The Km of D-Serine was measured for each enzyme batch to maintain consistency; this Km was used in subsequent assays.
# On the day of the assay compounds were serially diluted in DMSO before being diluted 1:20 with assay buffer (20 mM Tris ph 7.4). […] Finally 5 μl ‘Amplex’ red reagent (Invitrogen) was added to all wells as per manufacturer's protocol. The plate was incubated for 60 minutes in the dark at 25° C. and the fluorescence in each well was measured in the Envision plate reader.
# Concentration response curves were generated using the average of duplicate wells for each data point and analyzed using non-linear regression and four parameter curve fit.
# Sequence of Human DAAO enzyme (P14920 whole entry): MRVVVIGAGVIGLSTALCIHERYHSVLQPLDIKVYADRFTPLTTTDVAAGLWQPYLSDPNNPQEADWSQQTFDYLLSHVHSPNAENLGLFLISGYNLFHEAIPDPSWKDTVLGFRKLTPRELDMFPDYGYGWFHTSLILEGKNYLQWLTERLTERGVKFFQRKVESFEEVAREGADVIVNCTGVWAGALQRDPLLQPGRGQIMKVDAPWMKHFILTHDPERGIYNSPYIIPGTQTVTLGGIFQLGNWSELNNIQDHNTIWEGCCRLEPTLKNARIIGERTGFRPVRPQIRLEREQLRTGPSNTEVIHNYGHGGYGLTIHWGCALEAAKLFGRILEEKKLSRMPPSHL
row,SMILES,IC50 [nM]
1,"CCc1cc(O)c(=O)[nH]n1 [Example 1, 6-Ethyl-4-hydroxypyridazin-3(2H)-one]",11
2,"CC(C)CCc1cc(O)c(=O)[nH]n1 [Example 2, 4-Hydroxy-6-(3-methylbutyl)pyridazin-3(2H)-one]",61
3,"O=c1[nH]nc(C2CC2)cc1O [Example 3, 6-Cyclopropyl-4-hydroxypyridazin-3(2H)-one]",40
4,"O=c1[nH]nc(C2CCOCC2)cc1O [Example 4, 4-Hydroxy-6-(tetrahydro-2H-pyran-4-yl)pyridazin-3(2H)-one]",4100
5,"CC(C)Cc1cc(O)c(=O)[nH]n1 [Example 5, 4-Hydroxy-6-(2-methylpropyl)pyridazin-3(2H)-one]",140
6,"O=c1[nH]nc(C2CCCC2)cc1O [Example 6, 6-Cyclopentyl-4-hydroxypyridazin-3(2H)-one]",670
7,"O=c1[nH]nc(C2CCCCC2)cc1O [Example 7, 6-Cyclohexyl-4-hydroxypyridazin-3(2H)-one]",1100
8,"CC(C)c1cc(O)c(=O)[nH]n1 [Example 8, 4-Hydroxy-6-isopropylpyridazin-3(2H)-one]",36
9,"O=c1[nH]nc(N2CCC2)cc1O [Example 9, 6-(Azetidin-1-yl)-4-hydroxypyridazin-3(2H)-one]",2500
10,"CN(C)c1cc(O)c(=O)[nH]n1 [Example 10, 6-(Dimethylamino)-4-hydroxypyridazin-3(2H)-one]",46
11,"CCCN(C)c1cc(O)c(=O)[nH]n1 [Example 11, 4-Hydroxy-6-(methyl(propyl)amino)pyridazin-3(2H)-one]",180
12,"CCN(C)c1cc(O)c(=O)[nH]n1 [Example 12, 6-(Ethyl(methyl)amino)-4-hydroxypyridazin-3(2H)-one]",150
13,"O=c1[nH]nc(N2CCCCC2)cc1O [Example 13, 4-Hydroxy-6-(piperidin-1-yl)pyridazin-3(2H)-one]",3600
14,"CC(C)(C)c1cc(O)c(=O)[nH]n1 [Example 14, 6-tert-Butyl-4-hydroxypyridazin-3(2H)-one]",44
